Laboratory results: patent US8580784B2, “Method for treating a disease related to the glucocorticoid receptor” (Santen Pharmaceutical Co., Ltd., priority 2006, dated 2013)

Each molecule was assayed against T1, Recombinant human GR (Homo sapiens, UniProt P04150) (assay: Evaluation test for binding activity to glucocorticoid receptor: receptor competitor assay by fluorescence polarization (Invitrogen GR competitor assay kit, cat No. P2816)). Conditions: 20 μM test compound solution, 10 μL per well plus 5 μL 4×GS1 and 5 μL 4×GR solution; room temperature 2 to 4 hours; a ratio of 100% or more is indicated by 100%.
T1 construct: purchased Invitrogen P2816
T1 sequence (P04150 1-777): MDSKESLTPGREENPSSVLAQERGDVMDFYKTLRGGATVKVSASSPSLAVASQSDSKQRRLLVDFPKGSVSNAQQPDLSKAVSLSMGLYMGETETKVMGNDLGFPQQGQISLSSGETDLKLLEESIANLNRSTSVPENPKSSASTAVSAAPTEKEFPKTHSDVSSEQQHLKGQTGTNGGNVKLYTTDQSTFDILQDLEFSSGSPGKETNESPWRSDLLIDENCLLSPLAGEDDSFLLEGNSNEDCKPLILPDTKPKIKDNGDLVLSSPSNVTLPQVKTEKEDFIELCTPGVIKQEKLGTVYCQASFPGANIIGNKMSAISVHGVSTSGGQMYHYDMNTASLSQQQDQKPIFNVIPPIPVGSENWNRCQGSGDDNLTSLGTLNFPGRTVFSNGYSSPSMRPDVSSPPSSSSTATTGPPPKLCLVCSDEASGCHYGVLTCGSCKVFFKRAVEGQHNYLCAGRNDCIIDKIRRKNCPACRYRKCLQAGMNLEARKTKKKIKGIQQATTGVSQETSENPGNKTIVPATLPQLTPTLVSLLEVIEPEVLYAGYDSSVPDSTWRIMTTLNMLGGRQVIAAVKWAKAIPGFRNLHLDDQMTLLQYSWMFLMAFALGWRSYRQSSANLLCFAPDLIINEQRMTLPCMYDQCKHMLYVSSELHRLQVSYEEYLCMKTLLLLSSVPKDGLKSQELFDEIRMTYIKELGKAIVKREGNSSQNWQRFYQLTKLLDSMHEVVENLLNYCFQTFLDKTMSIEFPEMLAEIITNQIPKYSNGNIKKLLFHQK
Protocol: A detailed explanation of this matter will be described in the section of “Pharmacological Test” in Examples described below. In order to find the usefulness of the present compound as a pharmaceutical, a glucocorticoid receptor competitor assay was carried out by a fluorescence polarization method by using a glucocorticoid receptor competitor assay kit (manufactured by Invitrogen, cat No. P2816) to study the glucocorticoid receptor binding activity of the present compound.
1. Evaluation Test for Binding Activity to Glucocorticoid Receptor (hereinafter referred to as “GR”)
In order to evaluate a binding activity to GR, a receptor competitor assay was carried out by a fluorescence polarization method. In the assay, a GR competitor assay kit (manufactured by Invitrogen, cat No. P2816) was used, and a procedure was carried out according to the protocol attached to the kit. Hereinafter, the specific method will be described.
(Preparation of Reagents)
GR screening buffer: A buffer containing 10 mM potassium phosphate (pH 7.4), 20 mM sodium molybdate (Na2MoO4), 0.1 mM ethylene diamine tetraacetic acid (EDTA), 5 mM dithiothreitol (DTT), 0.1 mM stabilizing peptide and 2% dimethylsulfoxide was prepared.
4×GS1 solution: Fluormone™ GS1, which is a fluorescent glucocorticoid ligand, was diluted with GR screening buffer, whereby a 4 nM solution was prepared.
4×GR solution: Recombinant human GR was diluted with GR screening buffer, whereby a 16 nM solution was prepared.
(Preparation of Test Compound Solution)
After a test compound was dissolved in dimethylsulfoxide, the resulting solution was diluted with GR screening buffer, whereby a 20 μM test compound solution was prepared.
(Test Method and Measurement Method)
1) The test compound solution was added in an amount of 10 μL into each well of a 384-well plate, and then, 4×GS1 solution and 4×GR solution were added in an amount of 5 μL into each well, respectively.
2) The plate was incubated in a dark place at room temperature for 2 to 4 hours.
3) By using a multimode plate reader, Analyst™ HT (manufactured by LJL Biosystems), fluorescence polarization of each well was measured. As the blank, a well containing GR screening buffer in place of the test compound and 4×GS1 solution was used.
4) The same procedure as that in the above 1) to 3) was carried out except that GR screening buffer was used in place of the test compound solution, and the obtained result was taken as the negative control.
5) The same procedure as that in the above 1) to 3) was carried out except that 2 mM dexamethasone was used in place of the test compound solution, and the obtained result was taken as the positive control.
(Calculation Equation of GR Binding Ratio)
A GR binding ratio (%) was calculated from the following equation. GR binding ratio(%)=100×[1−(fluorescence polarization of test compound solution−fluorescence polarization of positive control solution)/(fluorescence polarization of negative control solution−fluorescence polarization of positive control solution)] (Test Results and Discussion)

inhibition at 20 µM (stock) | inhibition at 20 µM | Structure (SMILES)
– | 100% | CCCS(=O)(=O)Oc1ccc(-c2ccc3c(c2CNc2ccccc2OC)C(C)=CC(C)(C)N3)c(OC)c1 [Compound 2-1, 5-(2-Methoxyphenylaminomethyl)-6-(2-methoxy-4-propylsulfonyloxyphenyl)-2,2,4-trimethyl-1,2-dihydroquioline]
100% | – | COc1ccccc1NCc1c(-c2ccc(OS(=O)(=O)C(C)C)cc2OC)ccc2c1C(C)=CC(C)(C)N2 [Compound 2-2, 6-(4-Isopropylsulfonyloxy-2-methoxyphenyl)-5-(2-methoxyphenylaminomethyl)-2,2,4-trimethyl-1,2-dihydroquioline]
93% | – | COc1ccccc1NCc1c(-c2ccc(OS(C)(=O)=O)cc2OC)ccc2c1C(C)=CC(C)(C)N2 [Compound 2-5, 6-(2-Methoxy-4-methylsulfonyloxyphenyl)-5-(2-methoxyphenylaminomethyl)-2,2,4-trimethyl-1,2-dihydroquioline]
100% | – | CCCS(=O)(=O)Oc1ccc(-c2ccc3c(c2CNc2cc(F)ccc2C)C(C)=CC(C)(C)N3)c(OC)c1 [Compound 2-6, 5-(5-Fluoro-2-methylphenylaminomethyl)-6-(2-methoxy-4-propylsulfonyloxyphenyl)-2,2,4-trimethyl-1,2-dihydroquioline]
100% | – | COc1ccccc1NCc1c(-c2ccc(OS(=O)(=O)C3CC3)cc2OC)ccc2c1C(C)=CC(C)(C)N2 [Compound 2-7, 6-(4-Cyclopropylsulfonyloxy-2-methoxyphenyl)-5-(2-methoxyphenylaminomethyl)-2,2,4-trimethyl-1,2-dihydroquioline]
100% | – | COc1ccccc1NCc1c(-c2ccc(OS(=O)(=O)C3CCCC3)cc2OC)ccc2c1C(C)=CC(C)(C)N2 [Compound 2-10, 6-(4-Cyclopentylsulfonyloxy-2-methoxyphenyl)-5-(2-methoxyphenylaminomethyl)-2,2,4-trimethyl-1,2-dihydroquioline]
100% | – | COc1cc(OS(C)(=O)=O)ccc1-c1ccc2c(c1CNc1cc(F)ccc1C)C(C)=CC(C)(C)N2 [Compound 2-11, 5-(5-Fluoro-2-methylphenylaminomethyl)-6-(2-methoxy-4-methylsulfonyloxyphenyl)-2,2,4-trimethyl-1,2-dihydroquioline]

Further lines, the molecule ahead of its results:

Structure (SMILES) | inhibition at 20 µM (stock) | inhibition at 20 µM
COc1ccccc1NCc1c(-c2ccc(OC(=O)c3sccc3Cl)cc2OC)ccc2c1C(C)=CC(C)(C)N2 [Compound 1-28, 6-[4-(3-Chlorothiophen-2-ylcarbonyloxy)-2-methoxyphenyl]-5-(2-methoxyphenylaminomethyl)-2,2,4-trimethyl-1,2-dihydroquinoline] | 88% | –
COc1ccccc1NCc1c(-c2ccc(OC(=O)c3occc3C)cc2OC)ccc2c1C(C)=CC(C)(C)N2 [Compound 1-29, 6-[2-Methoxy-4-(3-methylfuran-2-ylcarbonyloxy)phenyl]-5-(2-methoxyphenylaminomethyl)-2,2,4-trimethyl-1,2-dihydroquinoline] | 93% | –
COc1ccccc1NCc1c(-c2ccc(OC(=O)c3cscn3)cc2OC)ccc2c1C(C)=CC(C)(C)N2 [Compound 1-30, 5-(2-Methoxyphenylaminomethyl)-6-[2-methoxy-4-(thiazol-4-ylcarbonyloxy)phenyl]-2,2,4-trimethyl-1,2-dihydroquinoline] | 94% | –
COc1ccccc1NCc1c(-c2ccc(OC(=O)c3ccc(C)nc3)cc2OC)ccc2c1C(C)=CC(C)(C)N2 [Compound 1-31, 6-[2-Methoxy-4-(6-methylpyridin-3-ylcarbonyloxy)phenyl]-5-(2-methoxyphenylaminomethyl)-2,2,4-trimethyl-1,2-dihydroquinoline] | 92% | –
COc1ccccc1NCc1c(-c2ccc(OC(=O)c3cccnc3OC)cc2OC)ccc2c1C(C)=CC(C)(C)N2 [Compound 1-32, 6-[2-Methoxy-4-(2-methoxypyridin-3-ylcarbonyloxy)phenyl]-5-(2-methoxyphenylaminomethyl)-2,2,4-trimethyl-1,2-dihydroquinoline] | 90% | –
COc1cc(OC(=O)c2ccoc2)ccc1-c1ccc2c(c1CNc1cc(F)ccc1C)C(C)=CC(C)(C)N2 [Compound 1-33, 5-(5-Fluoro-2-methylphenylaminomethyl)-6-[4-(furan-3-ylcarbonyloxy)-2-methoxyphenyl]-2,2,4-trimethyl-1,2-dihydroquinoline] | 100% | –
COc1cc(OC(=O)c2ccncc2)ccc1-c1ccc2c(c1CNc1cc(F)ccc1C)C(C)=CC(C)(C)N2 [Compound 1-34, 5-(5-Fluoro-2-methylphenylaminomethyl)-6-[2-methoxy-4-(pyridin-4-ylcarbonyloxy)phenyl]-2,2,4-trimethyl-1,2-dihydroquinoline] | 100% | –
COc1cc(OC(=O)c2ccccc2F)ccc1-c1ccc2c(c1CNc1cc(F)ccc1C)C(C)=CC(C)(C)N2 [Compound 1-35, 6-[4-(2-Fluorobenzoyloxy)-2-methoxyphenyl]-5-(5-fluoro-2-methylphenylaminomethyl)-2,2,4-trimethyl-1,2-dihydroquinoline] | 100% | –
COc1cc(OC(=O)c2cccnc2C)ccc1-c1ccc2c(c1CNc1cc(F)ccc1C)C(C)=CC(C)(C)N2 [Compound 1-38, 5-(5-Fluoro-2-methylphenylaminomethyl)-6-[2-methoxy-4-(2-methylpyridin-3-ylcarbonyloxy)phenyl]-2,2,4-trimethyl-1,2-dihydroquinoline] | 100% | –
COc1cc(OC(=O)c2ccccc2SC)ccc1-c1ccc2c(c1CNc1cc(F)ccc1C)C(C)=CC(C)(C)N2 [Compound 1-39, 5-(5-Fluoro-2-methylphenylaminomethyl)-6-[4-(2-methylthiobenzoyloxy)-2-methoxyphenyl]-2,2,4-trimethyl-1,2-dihydroquinoline] | 100% | –
COc1cc(OC(=O)c2cccnc2OC)ccc1-c1ccc2c(c1CNc1cc(F)ccc1C)C(C)=CC(C)(C)N2 [Compound 1-41, 5-(5-Fluoro-2-methylphenylaminomethyl)-6-[2-methoxy-4-(2-methoxypyridin-3-ylcarbonyloxy)phenyl]-2,2,4-trimethyl-1,2-dihydroquinoline] | 100% | –
COc1cc(OC(=O)c2occc2C)ccc1-c1ccc2c(c1CNc1cc(F)ccc1C)C(C)=CC(C)(C)N2 [Compound 1-42, 5-(5-Fluoro-2-methylphenylaminomethyl)-6-[2-methoxy-4-(3-methylfuran-2-ylcarbonyloxy)phenyl]-2,2,4-trimethyl-1,2-dihydroquinoline] | 100% | –
COc1ccccc1NCc1c(-c2ccc(OC(=O)N3CCOCC3)cc2OC)ccc2c1C(C)=CC(C)(C)N2 [Compound 1-44, 6-[2-Methoxy-4-(morpholin-4-ylcarbonyloxy)phenyl]-5-(2-methoxyphenylaminomethyl)-2,2,4-trimethyl-1,2-dihydroquinoline] | 96% | –
COc1cc(OC(=O)N2CCOCC2)ccc1-c1ccc2c(c1CNc1cc(F)ccc1C)C(C)=CC(C)(C)N2 [Compound 1-45, 5-(5-Fluoro-2-methylphenylaminomethyl)-6-[2-methoxy-4-(morpholin-4-ylcarbonyloxy)phenyl]-2,2,4-trimethyl-1,2-dihydroquinoline] | 100% | –
